# Measured values from publication PMC11815855, “Exploring the Structure–Activity Relationships of Albumin-Targeted Picoplatin-Based Platinum(IV) Prodrugs” (Inorganic Chemistry, 2025).
# Experiments:
# CT26 tumors = assay: Anticancer activity in vivo, CT26-bearing Balb/c mice; conditions: i.v. on days 3 and 10, dose equimolar to 20 mg/kg picoplatin
# Experimental: Ten-week-old Balb/c mice were purchased from Envigo Laboratories (San Pietro al Natisone, Italy). […] Animals were controlled for distress development every day, and tumor size was assessed regularly by caliper measurement. Tumor volume was calculated using the formula: (length × width^2)/2.
# CT26 cells (5 × 10^5 in serum-free medium) were injected subcutaneously into the right flank of male Balb/c mice. Therapy was started when tumor nodules were palpable (day 3). […] Mice were sacrificed by cervical dislocation in the case of a tumor length >20 mm, tumor ulceration, or other signs for distress.
# [1] = Serum pharmacokinetics and tumor/organ distribution (Pt by ICP-MS) in CT26-bearing Balb/c mice; format: in vivo; conditions: single i.v. dose equimolar to 20 mg/kg picoplatin
# Experimental: CT-26 cells (5 × 10^5 cells in 50 μL of serum-free medium) were subcutaneously injected into the right flank of male Balb/c mice. […]. […] and the three maleimide-containing platinum(IV) complexes were dissolved in 30% PEG400-containing 0.9% NaCl and PBS (Cytiva, USA), respectively. […]. After a 10 min clotting period of the blood at RT, the serum was separated by centrifugation (900 g, 10 min, repeated twice). Tumor and organ accumulation of the drug was assessed at 5 and 24 h postadministration (2 animals per time point). Mice were euthanized via cervical dislocation, and their tumors and organs were excised. All collected samples were stored at −20 °C until further processing for Pt concentration analysis by ICP-MS. […] Approximately 15–30 mg of tissue (gravimetrically measured) was digested with 2 mL of 20% nitric acid and 100 μL of H2O2 in an open-vessel graphite digestion system (Labter, ODLAB; AHF Analysentechnik AG, Germany), using PFA vials and lids. […] Quantification of total Pt content was performed on a quadrupole-based ICP-MS instrument (Agilent 7800, Agilent Technologies, Tokyo, Japan), equipped with an Agilent SPS 4 autosampler and a MicroMist nebulizer. […] Rh was used as the internal standard for Pt quantification. […]
smiles,measurement,setting,value
CC(=O)[O][Pt]([Cl])([Cl])[O]C(=O)NCCN1C(=O)C=CC1=O.Cc1ccccn1.N [Pico-Mal],impact on tumor growth,CT26 tumors,inactive
same,platinum levels in the kidneys,[1],higher
